In ChEMBL document CHEMBL1130878 (Bioorg Med Chem Lett, 1998):

Experiments:
[1] = target: T1, Endothelin receptor type B (Sus scrofa, UniProt P35463); experiment: In vitro ability to inhibit specific [125I]ET1 binding to porcine kidney (inner medulla) membranes Endothelin B receptor
T1 sequence (P35463 whole entry): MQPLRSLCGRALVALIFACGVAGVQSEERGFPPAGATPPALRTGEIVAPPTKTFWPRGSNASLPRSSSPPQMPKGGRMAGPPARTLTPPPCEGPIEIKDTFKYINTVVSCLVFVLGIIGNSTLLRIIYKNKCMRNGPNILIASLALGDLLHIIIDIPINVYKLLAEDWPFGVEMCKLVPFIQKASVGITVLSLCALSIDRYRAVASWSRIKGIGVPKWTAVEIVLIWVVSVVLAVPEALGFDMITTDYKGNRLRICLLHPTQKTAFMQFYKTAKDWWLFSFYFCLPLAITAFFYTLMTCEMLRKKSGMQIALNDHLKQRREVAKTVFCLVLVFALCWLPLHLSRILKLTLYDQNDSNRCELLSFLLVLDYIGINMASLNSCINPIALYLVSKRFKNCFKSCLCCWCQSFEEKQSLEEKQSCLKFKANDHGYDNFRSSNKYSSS

Endothelin-1 receptor = target: T2, Endothelin-1 receptor (Rattus norvegicus, UniProt P26684); experiment: In vitro ability to inhibit specific [125I]ET1 binding to rat aorta membranes Endothelin A receptor; format: tissue-based
T2 sequence (P26684 whole entry): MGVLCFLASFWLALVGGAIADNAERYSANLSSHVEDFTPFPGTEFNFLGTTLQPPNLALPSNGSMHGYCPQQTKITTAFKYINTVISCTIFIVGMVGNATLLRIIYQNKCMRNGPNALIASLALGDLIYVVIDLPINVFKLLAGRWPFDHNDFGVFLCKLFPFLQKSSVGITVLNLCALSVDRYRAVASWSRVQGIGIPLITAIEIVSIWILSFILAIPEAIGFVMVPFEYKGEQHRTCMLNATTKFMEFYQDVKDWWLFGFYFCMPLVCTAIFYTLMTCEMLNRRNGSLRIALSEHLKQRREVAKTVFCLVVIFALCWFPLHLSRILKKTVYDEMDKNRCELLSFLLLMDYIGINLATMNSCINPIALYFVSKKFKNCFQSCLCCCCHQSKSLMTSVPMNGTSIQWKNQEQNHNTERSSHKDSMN

Compound | IC50 [1] [µM] | IC50 (Endothelin-1 receptor) [µM]
COc1ccc(C(=O)/C(Cc2cc(OC(C)C)c(OC(C)C)c(OC(C)C)c2)=C(\C(=O)O)c2ccc3nsnc3c2)cc1 | 0.22 | 0.057
COc1ccc(C(=O)/C(Cc2ccc(OC)c(F)c2)=C(\C(=O)O)c2ccc3nsnc3c2)cc1 | 2.9 | 0.014
COc1ccc(C(=O)/C(Cc2ccccc2)=C(\C(=O)O)c2ccc3c(c2)OCO3)cc1 | 4.55 | 0.0074
COc1cc(C/C(C(=O)c2ccc3c(c2)OCO3)=C(/C(=O)O)c2ccc3nsnc3c2)cc(OC)c1OC | 0.4 | 0.0065
COc1ccccc1C(=O)/C(Cc1cc(OC)c(OC)c(OC)c1)=C(\C(=O)O)c1ccc2nsnc2c1 | 4.8 | 0.016
COc1ccc(C(=O)/C(Cc2ccc(SC)cc2)=C(\C(=O)O)c2ccc3nsnc3c2)cc1 | 3.2 | 0.017
COc1cc(C/C(C(=O)c2ccc3c(c2)CCO3)=C(/C(=O)O)c2ccc3nsnc3c2)cc(OC)c1OC | 0.46 | 0.028
